Values joined by “and” are separate entries in the source; they are usually repeats but may differ in a detail not shown here. Equal values may be shown once.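 Tested at 5 concentrations; 48 h exposure; 96-well plates; endpoints linearly interpolated, else capped at highest concentration. GI50: concentration for 50% inhibition of growth. TGI is the concentration that stops growth completely.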 Where only a bound is given, the exact number is not on record here.

One test deals with SR leukemia. The test is described as follows: NCI tumour cell line growth inhibition, 48 h.
Compound `CC[C@](C)(O)C(=O)O[C@H]1C(=O)O[C@@H]2C[C@H]3C(C)=CC(=O)[C@@H](O)[C@]3(C)[C@H]3[C@@]4(O)OC[C@]32[C@@H]1[C@@H](C)[C@H]4O` showed a TGI of 2.55 µM.

`NC(=O)[C@H]1CCN(c2ncnc(N)c2F)C[C@@H]1N1CCC[C@@H](Nc2cc(Cl)cc(C(F)(F)F)c2)C1=O`: the GI50 is 28.1 µM and the TGI came to 83.8 µM.

For `CCN(CC)c1ccc(/C=C/c2cc(C)c3ccccc3n2)cc1`, the GI50 was 1.53 µM and the TGI was 12.1 µM.

In the case of `O=C(CCl)c1ccc([N+](=O)[O-])o1`, the GI50 is 0.406 µM and the TGI was 1.81 µM.

`Nc1ncnc2c1ccn2C1OC2COP(=O)(O)OC2C1O` (centres undefined) registered a TGI of 25.6 µM.

For the compound `Cc1cc(N2CCCCC2)nc(N(CCNc2ccnc3cc(Cl)ccc23)Cc2ccco2)n1`, the GI50 is 1.77 µM and the TGI amounted to 4.02 µM.

As to `O=C(O)[C@@H]1C2CC([C@@H]1C(=O)O)[C@H](N1C(=O)CCC1=O)[C@@H]2Br` (some centres undefined), the TGI was > 100 µM.

Consider `CCCN1C(=O)/C(=c2\sc3n(c2=O)C2C(NN=3)N(CC)C(=O)N2CC)c2ccccc21` (centres undefined), for which the GI50 was 0.422 µM and the TGI is 21.9 µM.

As for `CCn1c(-c2nonc2N)nc2cncc(C(=O)N3CCNCC3)c21`, the GI50 is > 25 µM and the TGI is > 25 µM.

Regarding `c1ccc2[nH]c(-c3ccc(N4CCN(c5ccc(-c6nc7ccccc7[nH]6)cc5)CC4)cc3)nc2c1`, the GI50 is 3.08 µM and the TGI is 6.85 µM.

Regarding `CCN(CC)CCOc1ccc(C(=C(C)c2ccc(Cl)cc2)c2ccc(OCCN(CC)CC)cc2)cc1`, the GI50 is 0.484 µM and the TGI worked out at 1.25 µM.

In the case of `C[C@]12CC[C@H]3[C@@H](CCC4=CC(=O)CC[C@@H]43)[C@@H]1CC[C@@H]2OC(=O)N(CCCl)N=O`, the GI50 is < 0.0381 µM.

As for `CC12CCC(=O)C=C1CCC1C2CCC2(C)C(C(=O)Cn3cnc4c(=S)nc[nH]c43)CCC12` (centres undefined), the TGI is > 100 µM.

On to `CN(C)CCNC(=O)c1cccn2c(=O)c3cc4ccccc4cc3nc12`, for which the GI50 is 0.0457 µM and the TGI is > 100 µM.

`COc1ccc(Cn2nc(-c3cc(OC)c(OC)c(OC)c3)c3c2CCc2cnoc2-3)cc1OC`: the GI50 was 2.67 µM and the TGI was > 100 µM.

The next test has as its system KM12 colon. Kind of test: NCI tumour cell line growth inhibition, 48 h.
On to `O=c1cc(CNc2cc(F)cc(F)c2)c2ccc(I)cc2[nH]1`, for which the GI50 was 0.423 µM and the TGI was > 100 µM.

Take `CC[C@](C)(O)C(=O)O[C@H]1C(=O)O[C@@H]2C[C@H]3C(C)=CC(=O)[C@@H](O)[C@]3(C)[C@H]3[C@@]4(O)OC[C@]32[C@@H]1[C@@H](C)[C@H]4O`: the GI50 was 0.233 µM; the TGI is 3.62 µM and 0.404 µM.

Take `NC(=O)[C@H]1CCN(c2ncnc(N)c2F)C[C@@H]1N1CCC[C@@H](Nc2cc(Cl)cc(C(F)(F)F)c2)C1=O`: the GI50 is 6.31 µM and the TGI was > 100 µM.

`CCN(CC)c1ccc(/C=C/c2cc(C)c3ccccc3n2)cc1`: the GI50 was 2.31 µM and the TGI is 13.2 µM.

In the case of `O=C(CCl)c1ccc([N+](=O)[O-])o1`, the GI50 was 2.02 µM and the TGI stood at 4.6 µM.

With `Nc1ncnc2c1ccn2C1OC2COP(=O)(O)OC2C1O` (centres undefined), the TGI turned out to be 16.5 µM.

In the case of `Cc1cc(N2CCCCC2)nc(N(CCNc2ccnc3cc(Cl)ccc23)Cc2ccco2)n1`, the GI50 is 2.07 µM and the TGI amounted to 4.71 µM.

On to `O=C(O)[C@@H]1C2CC([C@@H]1C(=O)O)[C@H](N1C(=O)CCC1=O)[C@@H]2Br` (some centres undefined), for which the TGI is > 100 µM.

Consider `CCCN1C(=O)/C(=c2\sc3n(c2=O)C2C(NN=3)N(CC)C(=O)N2CC)c2ccccc21` (centres undefined), for which the GI50 is 0.41 µM and the TGI came out at 13.8 µM.

On to `CCn1c(-c2nonc2N)nc2cncc(C(=O)N3CCNCC3)c21`, for which the GI50 was > 25 µM and the TGI is > 25 µM.

As to `c1ccc2[nH]c(-c3ccc(N4CCN(c5ccc(-c6nc7ccccc7[nH]6)cc5)CC4)cc3)nc2c1`, the GI50 is 71.1 µM and the TGI is > 100 µM.

On to `CCN(CC)CCOc1ccc(C(=C(C)c2ccc(Cl)cc2)c2ccc(OCCN(CC)CC)cc2)cc1`, for which the GI50 was 0.666 µM and the TGI stood at 1.37 µM.

As to `C[C@]12CC[C@H]3[C@@H](CCC4=CC(=O)CC[C@@H]43)[C@@H]1CC[C@@H]2OC(=O)N(CCCl)N=O`, the GI50 was 2.95 µM and the TGI is 19.2 µM.

On to `CC12CCC(=O)C=C1CCC1C2CCC2(C)C(C(=O)Cn3cnc4c(=S)nc[nH]c43)CCC12` (centres undefined), for which the TGI is > 100 µM.

With `CN(C)CCNC(=O)c1cccn2c(=O)c3cc4ccccc4cc3nc12`, the GI50 is 0.161 µM and the TGI is 1.41 µM.

Take `COc1ccc(Cn2nc(-c3cc(OC)c(OC)c(OC)c3)c3c2CCc2cnoc2-3)cc1OC`: the GI50 is 3.89 µM and the TGI amounted to 37.6 µM.

Another test concerns M14 melanoma. Kind of test: NCI tumour cell line growth inhibition, 48 h.
For `O=c1cc(CNc2cc(F)cc(F)c2)c2ccc(I)cc2[nH]1`, the GI50 is 0.52 µM and the TGI is > 100 µM.

In turn, `CC[C@](C)(O)C(=O)O[C@H]1C(=O)O[C@@H]2C[C@H]3C(C)=CC(=O)[C@@H](O)[C@]3(C)[C@H]3[C@@]4(O)OC[C@]32[C@@H]1[C@@H](C)[C@H]4O` showed a TGI of 0.396 µM.

Consider `NC(=O)[C@H]1CCN(c2ncnc(N)c2F)C[C@@H]1N1CCC[C@@H](Nc2cc(Cl)cc(C(F)(F)F)c2)C1=O`, for which the GI50 was 12.8 µM and the TGI amounted to 36.8 µM.

In the case of `CCN(CC)c1ccc(/C=C/c2cc(C)c3ccccc3n2)cc1`, the GI50 was 3.42 µM and the TGI came out at 13.6 µM.

In the case of `O=C(CCl)c1ccc([N+](=O)[O-])o1`, the GI50 is 2.18 µM and the TGI turned out to be 5.06 µM.

The compound `Nc1ncnc2c1ccn2C1OC2COP(=O)(O)OC2C1O` (centres undefined) yielded a TGI of 1.54 µM.

With `Cc1cc(N2CCCCC2)nc(N(CCNc2ccnc3cc(Cl)ccc23)Cc2ccco2)n1`, the GI50 is 1.82 µM and the TGI was determined as 3.61 µM.

Regarding `O=C(O)[C@@H]1C2CC([C@@H]1C(=O)O)[C@H](N1C(=O)CCC1=O)[C@@H]2Br` (some centres undefined), the TGI is > 100 µM.

On to `CCCN1C(=O)/C(=c2\sc3n(c2=O)C2C(NN=3)N(CC)C(=O)N2CC)c2ccccc21` (centres undefined), for which the GI50 was 0.413 µM and the TGI is 12.4 µM.

(Values after PubChem BioAssay (NCI).)
